Results published in US12036241B2, “Compositions and methods for immune cell modulation in adoptive immunotherapies” (Fate Therapeutics, Inc., priority 2017, dated 2024).
Entries after “also recorded” stand apart in the source; their conditions may differ.

How the values were obtained:
[1] = system: T cells from healthy donors; assay: T cell viability and expansion after compound treatment; format: cell-based, human; conditions: FIGS. 2A, 2B
Excerpt: (§1) Fresh leukopaks (AllCells, Alameda, Calif.; Key Biologics, Memphis, Tenn.) were obtained from healthy donors, from which T cells were negatively selected using, for example, the EasySep Human T Cell Enrichment Kit (Stem Cell Technologies, Vancouver, Canada). The freshly isolated T cells were aliquoted and cryopreserved. On the day the assays were initiated, T cells were thawed and washed into X-Vivo 15 with supplements including IL-2 and pen/strep. Cells were dispensed into flat-bottom 384-well plates at 5×10^5 cells/ml with anti-CD3/Anti-CD28 beads. Individual compounds were added at a final concentration over the range of 10 μM to 10 nM to each well from column 3 to column 22 of each plate. Positive and negative controls were added to additional wells. Cells were incubated for about 6 days at 37 degrees with 5% CO2.
(§2) These studies were performed with T cells from healthy donors. Six days post-initiation of culture in the presence of anti-CD3/CD28 beads and compound addition, cells were harvested and stained with a fixable viability marker and fluorophore-conjugated antibodies: CD3, CD4, CD8, CD62L, CCR7, CD27, and Tim3 (BD Biosciences, San Jose, Calif.; and BioLegend, San Diego, Calif.). Fluorescent absolute counting beads (Spherotech, Lake Forest, IL) were added just prior to acquisition. Data acquisition was performed on a BD Fortessa™ X-20 (BD Biosciences) and data were analyzed using Treestar™ software (FlowJo, Ashland, Oreg.) and Spotfire (Tibco, Boston, Mass.). The expression of surface markers including CD62L, CCR7 and CD27 was used to identify naïve, stem cell memory, or central memory T cells. After the treatment with each of the compounds, the surface marker expression profile of the treated cells was evaluated along with characterization of cell proliferation and viability. Compounds were scored on expression of these individual Tcm markers as well as CD62L/CCR7 double positive cells. Gene expression scores were also obtained based on a panel of selected 12 genes (Table 2) that are maximally differentially expressed in CD8 Tcm cells relative to Tem.
The phenotypic studies of the surface markers also included characterization of cell viability (FIG. 2A) and cell expansion (FIG. 2B). Scores for the graphs in FIGS. 2A-B were obtained using the formula: (Test value−minimum value)/(maximum value—minimum value)×10

[2] = system: T cells from healthy donors; assay: Phenotypic profiling of T cells: CCR7, CD62L, CD27 surface markers by flow cytometry; format: cell-based, human; conditions: FIG. 1A; for Tcm phenotype / effect on improving Tcm percentage: relative to vehicle
Excerpt: as §1, §2
The selected groups of compounds were assessed for their ability to skew T cell phenotype. […] Tcm is characterized herein by expression of both CCR7 and CD62L. The expression of either CD62L or CCR7 on T cells, as indicative of the desired T cell subsets, indicates a favorable functional characteristic for CAR-T cell therapy, and potentially other adoptive T cell therapies. The phenotypic studies use flow cytometry to measure the expression levels of these key surface proteins. Compounds were scored on expression of these individual Tcm markers as well as CD62L/CCR7 double positive cells (FIG. 1A). The scores in FIG. 1A were generated using the values obtained from four donors and the formula: Score=Normalized StDev over Vehicle×Significance (−log 10(p-value))+1 Scores for other graphs in this figure used the same formula.

CD8+ T cells = assay: Cytokine production (IFNγ, IL-2, TNFα) after PMA/ionomycin, intracellular staining; format: cell-based, human; conditions: PMA/ionomycin 4 h; for increase of IL-2 only subpopulation / increase of IFNγ+ only subpopulation: FIG. 3D
Procedure: The ability of T cells to respond to a variety of stimuli can be important to their function. The capacity of T cells to produce multiple cytokines in response to non-specific stimulation is a measure of their ‘multifunctionality’. To assess whether compounds affect this ‘multifunctional’ response, the ability of modulated T cells to produce interferon-γ (IFNγ), IL-2 and/or TNFα post-stimulation was determined. After CD8^+ T cell treatment with each of the selected compounds, cells were stimulated with a mixture of PMA/ionomycin for four hours. Following stimulation, cytokine production was measured using intracellular cytokine staining with antibodies recognizing these cytokines conjugated to different fluorophores. Fluorescence was measured using flow cytometry. Cell were defined as multifunctional if they produced two or more cytokines. The proportion of T cell subsets that produce specific single, double or triple cytokines was examined and compared to cells without modulation using a selected compound.
The ability of T cells to respond to a variety of stimuli is important for their function. The capacity of T cells to produce multiple cytokines in response to non-specific stimulation is a measure of their “multifunctionality”. To assess whether selected compounds affect this “multifunctional” response in view of their phenotype skewing effect on the treated cells, the ability of treated cells to produce interferon-γ (IFNγ), IL-2 and TNFα post-stimulation was determined. After treatment of CD8+ T cells with a compound from Table 1, cells were stimulated with a mixture of PMA/ionomycin for four hours. Following stimulation, cytokine production was measured by intracellular cytokine staining with fluorescence-emitting antibodies recognizing these cytokines conjugated to different fluorophores. Fluorescence was measured using flow cytometry. Cells were defined as multifunctional if they produced at least two of the three cytokines.

[3] = system: irradiated K562 cells expressing CD19 and mKate2; assay: Target cell killing by compound-treated CAR-T cells (IncuCyte); format: cell-based, human; conditions: earlier time points, 24 to 65 hours; FIG. 4A
Procedure: An in vitro serial killing/re-stimulation assay, where the T cells treated by each compound were evaluated for various functions, including expansion and ability to kill tumor cells expressing the target antigen in vitro over multiple rounds of exposure to and withdrawal from antigen, was used as a model system. Such assays were carried out on cells treated with or without compounds, to assess the impact of individual compounds on cell function after repeated encounter with antigen, and cell expansion or persistence in such contexts.
An in vitro serial killing/re-stimulation assay, where CAR-T cells are tested for the ability to “clear” tumor cells in vitro over multiple rounds, can be used as a model to assess CAR-T expansion in the presence of tumor cells that express the antigen recognized by the CAR.
CD8 T cells were transduced with CARs and the cells were then cryopreserved. After thawing, the CAR-T cells were co-cultured with irradiated K562 tumor cells that express transgenic mKate2, a far-red fluorescent protein, and CD19, the antigen recognized by the CAR. […]
From this, the Area Under the Curve (AUC) for CAR-T cells treated with each compound can be calculated. […] To determine the effect of compound treatment on the killing ability of CAR-T cells, the AUC relative to target cells alone was determined.

CAR-T cells = assay: Serial restimulation of CAR-T cells produced with vehicle, PI3K inhibitor or PDK1 inhibitor; format: cell-based, human; conditions: after antigen stimulation and withdrawal, and with coated beads; FIG. 10 legend
Procedure: At the end of the manufacturing process, the cells were frozen prior to subsequent functional analysis.
The ability of CAR-T cells produced in the presence of vehicle, PI3K inhibitor, or PDK1 inhibitor to expand through multiple rounds of antigen stimulation was measured in a serial restimulation assay, wherein cryopreserved CAR-T cells were thawed and co-cultured in the presence of antigen-bearing, irradiated target cells. Every 3 to 4 days the CAR-T and target cell ratios were readjusted to approximately 1:1. […] As an alternative to using antigen-bearing, irradiated target cells for CAR-T cell stimulation, cryopreserved CAR-T cells from three independent donors produced in the presence of vehicle, PI3Ki or PDKli were thawed in T cell growth media and subsequently assessed for expansion and survival, as measured by AUC (area under the curve) of the expansion over 14 days of stimulation with anti-CAR antibodies conjugated to beads.

Raji = assay: Survival in Raji/NSG tumor model, suboptimal CAR-T dose; format: in vivo, NSG mice; conditions: 2.5×10^5 CD19 CAR-T cells; FIG. 12B; listed as PI3K inhibitor
Procedure: (§3) Next, an in vivo assay was conducted to further characterize CAR-T cells produced in the presence of a PI3K inhibitor or a PDK1 inhibitor for tumor clearance. NSG mice were injected with a human leukemia line, Nalm-6. Four days later, mice were treated with a suboptimal dose (3×10^5) of freshly thawed CD19 CAR-T cells generated in the presence of vehicle (“DMSO” n=8), PI3K inhibitor (n=8), or PDK1 inhibitor (n=8). Some tumor bearing mice (n=2) also received expanded T cells that were not transduced with CAR (untransduced or “UNTD”). Negative control mice (n=2, “Unmanip”) received neither tumor nor CAR T cells. […] Seven days later, a suboptimal dose (2.5×10^5) of CD19 CAR-T cells produced in the presence of DMSO, PDK1 inhibitor, or PI3K inhibitor were transferred and the survival of the tumor bearing mice was monitored.

Nalm-6 = assay: Survival in Nalm6/NSG tumor model, suboptimal CAR-T dose; format: in vivo, NSG mice; conditions: 3×10^5 CD19 CAR-T cells; FIG. 12A; listed as PI3K inhibitor
Procedure: as §3

**Q.** With CC1(C)O[C@@H]2C[C@H]3[C@@H]4C[C@H](F)C5=CC(=O)C=C[C@]5(C)[C@H]4[C@@H](O)C[C@]3(C)[C@]2(C(=O)CO)O1 [Compound 10, Flunisolide] as the molecule, how does the “cell viability and/or expansion relative to vehicle treatment” value [1] read?
**A.** enhance cell viability and/or expansion

**Q.** And the “Tcm phenotype / effect on improving Tcm percentage” value [2]?
**A.** minimal effect

**Q.** CC(C)(C)c1nc(-c2cccc(NS(=O)(=O)c3c(F)cccc3F)c2F)c(-c2ccnc(N)n2)s1 [Compound 24, Dabrafenib] was tested. Which “increase of the percentage of CCR7, CD62L double positive cells (Tcm) relative to vehicle” value ([2]; T cells, about 6 days with anti-CD3/CD28 beads, vs DMSO) did it give?
**A.** about 10 fold

**Q.** Which “increase of IL-2 only subpopulation” value (CD8+ T cells) does the source give for C[C@@H]1CCN(C(=O)CC#N)C[C@@H]1N(C)c1ncnc2[nH]ccc12 [Compound 18, Tofacitinib] here?
**A.** ~4 fold

**Q.** How did the “cell viability and/or expansion relative to vehicle treatment” value [1] turn out when CC(=O)OCC(=O)[C@@]12OC3(CCCC3)O[C@@H]1C[C@H]1[C@@H]3CCC4=CC(=O)C=C[C@]4(C)[C@@]3(F)[C@@H](O)C[C@@]12C [Compound 12, Amcinonide] was run?
**A.** enhance cell viability and/or expansion

**Q.** And the “Tcm phenotype / effect on improving Tcm percentage” value [2]?
**A.** minimal effect

**Q.** With Cc1ccc(NC(=O)c2cccc(C(C)(C)C#N)c2)cc1Nc1ccc2ncn(C)c(=O)c2c1 [Compound 23, AZ628] as the molecule, how does the “kinetics of target cell killing compared to vehicle” value [3] read?
**A.** slower than for vehicle

**Q.** What about the “increase of IFNγ+ only subpopulation” value (CD8+ T cells) of the same molecule?
**A.** ~116 fold

**Q.** What about the “increase of IL-2 only subpopulation” value (CD8+ T cells) of the same molecule?
**A.** ~18 fold

**Q.** With Cc1ccc(-c2ncc(Cl)cc2-c2ccc(S(C)(=O)=O)cc2)cn1 [Compound 7, Etoricoxib] as the molecule, how does the “cell viability and/or expansion relative to vehicle treatment” value [1] read?
**A.** enhance cell viability and/or expansion

**Q.** What about the “Tcm phenotype / effect on improving Tcm percentage” value [2] of the same molecule?
**A.** minimal effect

**Q.** For Oc1cccc(-c2nc(N3CCOCC3)c3oc4ncccc4c3n2)c1 [PI103], which CAR-T cell expansion (CAR-T cells) is on record?
**A.** improves CAR-T cell expansion

**Q.** What about the “survival of tumor bearing mice compared to DMSO treated CAR-T cells” value (Raji) of the same molecule?
**A.** substantially improved; also recorded: improves survival

**Q.** And the “survival of tumor bearing mice compared to DMSO generated CAR-T cells” value (Nalm-6)?
**A.** prolonged survival; also recorded: improves survival

**Q.** Which “increase of IL-2 only subpopulation” value (CD8+ T cells) does the source give for C1=C/COCc2cc(ccc2OCCN2CCCC2)Nc2nccc(n2)-c2cccc(c2)COC/1 [Compound 17, Pacritinib] here?
**A.** about 11 fold

**Q.** Which results are given for O=C1NCCN1CCN1CCC(c2cn(-c3ccc(F)cc3)c3ccc(Cl)cc23)CC1 [Compound 8, Sertindole]?
**A.** cell viability and/or expansion relative to vehicle treatment [1]: enhance cell viability and/or expansion; Tcm phenotype / effect on improving Tcm percentage [2]: minimal effect

**Q.** For CC(=O)OCC(=O)[C@@]1(O)[C@H](C)C[C@H]2[C@@H]3CCC4=CC(=O)C=C[C@]4(C)[C@@]3(F)[C@@H](O)C[C@@]21C [Compound 11, Dexamethasone Acetate], which “cell viability and/or expansion relative to vehicle treatment” value [1] is on record?
**A.** enhance cell viability and/or expansion

**Q.** What about the “Tcm phenotype / effect on improving Tcm percentage” value [2] of the same molecule?
**A.** minimal effect

**Q.** Cc1sc2c(c1C)C(c1ccc(Cl)cc1)=N[C@@H](CC(=O)Nc1ccc(O)cc1)c1nnc(C)n1-2 [Compound 1, OTX015] was tested. Which “increase of total multifunctional subpopulation (at least 2 cytokines)” value (CD8+ T cells; CD8+ T cells, vs vehicle) did it give?
**A.** ~16 fold

**Q.** What about the “increase of cells producing all three cytokines” value (CD8+ T cells; IFNγ, IL-2, TNFα) of the same molecule?
**A.** ~13 fold

**Q.** And the “increase of IFNγ+ only subpopulation” value (CD8+ T cells)?
**A.** about 33 fold
